By AUC is commonly meant concentration integrated over time. A word on the Vd: it is a proportionality between amount in the body and measured concentration, not a real space. Usually clearance stands for the volume of plasma or blood freed of the substance per unit of time. A word on the Cmax: it is the maximum level reached in the sampled fluid or tissue. Usually bioavailability stands for dose-corrected exposure relative to a reference, in per cent. Usually Tmax stands for the time from dosing to the highest level.

Structures are written as SMILES. Like-named read-outs stand apart in the source and are kept apart here.

Data on eleven molecules can be found in patent publication EP4813463A2, “TYK2 INHIBITORS AND COMPOSITIONS AND METHODS THEREOF” (Lynk Pharmaceuticals Co. Ltd., priority 2023, dated 2024).

Data set [1] has as its system IFNa pSTAT1. As to the kind of experiment: Phosphorylation of STAT1 inhibition in HMC3 cells with HTRF assay. The format is cell-based. To be noted: Homo sapiens, HMC3 microglia cells, 50ng/mL hINFα 1 hour, read-out: HTRF_HMC3 IC 50 (IFNa pSTAT1). How it is done: Seeding HMC3 cells into 96-well plate and incubate overnight. Pre-stimulation with recombinant human IFNα (Sino biological, H08Y), treat cells with compound with different concentration for 1hr. After compound treatment, stimulate cells with 50ng/mL hINFα for another 1 hour (for CCF-STTG1 cells IFNα induction time is 30 mins). After compound treatment and cytokine stimulation, dump old medium and lyse cells with supplemented lysis buffer provided by the HTRF kit (Revvity, 63ADK026PEG) for 30 min at room temperature under shaking. After homogenization by pipetting up and down, transfer 16 µL of cell lysate from the 96-well cell-culture plate to a small volume white 384-well plate, and then add 4 µL of pre-mixed two ready-to-use antibody working solution into each wells. Cover the plate with a plate sealer and incubate it overnight at room temperature. Read the fluorescence emission at two different wavelengths (665nm and 620nm) on microplate reader (Molecular Device, SpectraMax i3X). Collect data and analyzed with GraphPad Prism.
On the technique in general: In TR-FRET formats the signal depends on donor and acceptor labels being close together.

The next data set relates to Caco-2 cell lines. Nature of the data set: Caco-2 cell permeability. The format is in vitro ADME. The following applies: Caco-2; result in words. (In general: Passage across Caco-2 layers is used to estimate intestinal permeability.)
Data set [2] concerns IFNa pSTAT1. As to the kind of experiment: Phosphorylation of STAT1 inhibition in CCF-STTG1 cells by Jess. The format is cell-based. The following applies: Homo sapiens, 0.5 h; CCF-STTG1 astrocyte cells, IFNα induction 30 mins, Jess western; read-out: Jess_CCF-STTG1 IC50 (IFNa pSTAT1). How it is done: Seeding HMC3 cells into 12-well plate and incubate overnight. Pre-stimulation with recombinant human IFNα (Sino biological, H08Y), treat cells with compound with different concentration for 1hr. After compound treatment, stimulate HMC3 cells with 50ng/mL hINFα for another 1 hour (for CCF-STTG1 cells IFNα induction time is 30 mins). And then wash cells with DPBS once gently and lyse cells with pre-cooled RIPA buffer (Sigma, R0278-500ML) for 30min on ice to harvest cells. Centrifuge cell lysate for 20 mins at 12000rpm with freezer centrifuge (Thermo Scientific, Heraeus Fresco 21) to extract protein. Prepare samples with Jess Simple Wes kit (SM-WO04) and then run western blot on Jess simple western system (Protein simple, JS-4631). Collect data and analyzed with GraphPad Prism.

Data set [3] can be described thus: Pharmacokinetic study in rats. The format is in vivo. To be noted: rat, plasma, Sprague-Dawley rats, solution. How it is done:
Pharmacokinetic profiles of test articles were evaluated in fasted mouse, Sprague-Dawley rats and Beagle dogs. After dosing, blood samples were collected at each time point. For IV injection group, time points were set at 5, 15, 30 min, and then 1, 2, 4, 8 and 24 hours after dosing. For oral gavage group,#time points were set at 15, 30 min, and then 1, 2, 4, 8, and 24 hours. Blood was collected into appropriately labeled tubes containing K2EDTA as the anticoagulant. Plasma was obtained within 1 hours of blood collection by centrifugation at 8000×g and 4 °C for 6 minutes, and then stored at -20 °C until analyzed by LC/MS/MS for quantification. PK parameter values, including, but not necessarily limited to, the maximum plasma concentrations (Cmax), the time to reach the maximum concentrations (Tmax), and the area under the plasma concentration vs. time curve (AUC) from time zero to 24-hour (AUC0-24h) were determined using WinNonlin program. Table 17. […]

Another data set relates to TYK2 pathway. As to the kind of experiment: IFN-γ release in NK92 cells stimulated by IL-12 (ELISA). The format is cell-based. The following applies: IL-12 2.5ng/mL stimulation 15hrs, IFN-γ in supernatant by ELISA. How it is done:
IFN-γ Release in NK92 Cells Stimulated by IL-12
Purpose: To evaluate the inhibition activity of TYK2 inhibitors in NK92 cells on TYK2 pathway through ELISA method.
Procedure: 1) Seeding NK92 cells into 96-well plate, cell density is 1.5E5 cells/well, 100uL/well; 2)Add prepared test articles into indicated wells, 50uL/well, and continue incubate for 1h, at 37°C; 3) After compound treatment, add 50uL/well IL-12 into indicated wells, final concentration of IL-12 is 2.5ng/mL; 4)Incubate cytokine stimulated cells at 37°C for another 15hrs in CO2 incubator; 5) After cytokine stimulation, transfer culture supernatant into a new plate and centrifuge for 5min at 350x g, and detect IFN-γ concentration in the supernatant with ELISA kit; 6) Data analysis with GrapdPad Prism6.0 software. Table 5. IC50 Values of Exemplary Compounds on TYK2 Pathway
A general note: In an ELISA, binding on a coated surface is turned into a signal by an enzyme label.

Data set [4] can be described thus: Mice colon pharmacokinetic studies. The following applies: mouse, female Balb/c mice, oral gavage, 10 mg/kg; for half-life: read-out: Plasma T1/2 (converted). The format is in vivo. How it is done: Pharmacokinetic studies were investigated using female Balb/c mice to determine plasma and colon exposure of tested compounds. Compounds were administrated via oral gavage in a formulation of 0.5% Methocel (A4M) + 0.1% Tween80 in water to Balb/c mic. Animals were anesthetized at the designated time points, plasma, colon tissue and colonic contents samples were collected. Tissue samples were homogenized using MeOH : PBS(1:1). All samples were analyzed by LC-MS/MS.

Setting [5] is: plasma, read-out: Plasma AUC0-24.
Setting [6] is: colon tissue, read-out: Colon AUC0-24.
Setting [7] is: colonic contents, read-out: Colon content AUC0-24.

Consider `COC(=O)c1cnc(NC(=O)[C@@H]2C[C@@H]2F)cc1Nc1nn(C)c2ccc(C(O)C(F)(F)F)c(OC)c12` (single isomer, unassigned) [Example 122A, Methyl 6-((1S,2S)-2-fluorocyclopropane-1-carboxamido)-4-((4-methoxy-1-methyl-5-((S*)-2,2,2-trifluoro-1-hydroxyethyl)-1H-indazol-3-yl)amino) nicotinate], for which the IC50 in the data set with IFNa pSTAT1 [1] was under 0.061 nM. Besides, the “efflux ratio compared with the amide compounds 21,23,25,33,49A and BMS986165” value (“efflux ratio” for short) with Caco-2 cell lines is “lower efflux ratio numbers”.
On to `[2H]C([2H])([2H])NC(=O)c1cnc(NC(=O)C2CC2)cc1Nc1cnn2ccc([C@H](O)C(F)(F)F)c(OC)c12` [Example 7A, (S)-6-(cyclopropanecarboxamido)-4-((4-methoxy-5-(2,2,2-trifluoro-1-hydroxyethyl)pyrazolo[1,5-a]pyridin-3-yl)amino)-N-(methyl-d3)nicotinamide], for which, in the data set with IFNa pSTAT1 [2], the IC50 was 6.82 nM. In data set [3] (intravenous, 1 mg/kg), this molecule showed an area under the curve (AUC) of 0.317 µg·h/mL, a Vd of 3.3 L/kg, a clearance of 53.2 mL/min/kg and a half-life of 0.84 h. In data set [3] (oral, 10 mg/kg), the exposure (AUC) worked out at 0.258 µg·h/mL, the peak concentration (Cmax) was determined as 31.3 ng/mL, the bioavailability is 8.1% and the half-life was 4.91 h. The same molecule registered an IC50 with TYK2 pathway of 9.1 nM. Also, in data set [4] (plasma), the maximum concentration (Cmax) is 426 ng/mL, the Tmax was 0.25 h and the half-life is 1.75 h. Besides, the AUC(0-t) in data set [4] (setting [5]) is 0.599 µg·h/mL. In data set [4] (setting [6]), the AUC(0-t) was determined as 45.8 µg·h/mL. Moreover, in data set [4] (setting [7]), the AUC(0-t) came to 1430 µg·h/mL.
In turn, `[2H]C([2H])([2H])NC(=O)c1cnc(Nc2ccn(C)n2)cc1Nc1cnn2ccc([C@H](O)C(F)(F)F)c(OC)c12` [Example 21, (S)-4-((4-methoxy-5-(2,2,2-trifluoro-1-hydroxyethyl)pyrazolo[1,5-a]pyridin-3-yl)amino)-N-(methyl-d3)-6-((1-methyl-1H-pyrazol-3-yl)amino)nicotinamide] had an IC50 with TYK2 pathway of 14.5 nM.
In the data set on TYK2 pathway, `[2H]C([2H])([2H])NC(=O)c1cnc(Nc2cc(C)nc(C)n2)cc1Nc1cnn2ccc([C@H](O)C(F)(F)F)c(OC)c12` [Example 25, (S)-6-((2,6-Dimethylpyrimidin-4-yl)amino)-4-((4-methoxy-5-(2,2,2-trifluoro-1-hydroxyethyl)pyrazolo[1,5-a]pyridin-3-yl)amino)-N-(methyl-d3)nicotinamide] yielded an IC50 of 7.18 nM.
`[2H]C([2H])([2H])NC(=O)c1cnc(NC(=O)C2CC2)cc1Nc1cnn2ccc([C@H](OC)C(F)(F)F)c(OC)c12` [Example 27, (S)-6-(cyclopropanecarboxamido)-4-((4-methoxy-5-(2,2,2-trifluoro-1-methoxyethyl)pyrazolo[1,5-a]pyridin-3-yl)amino)-N-(methyl-d3)nicotinamide] came in with an IC50 in the data set with TYK2 pathway of 6.02 nM.
As to `[2H]C([2H])([2H])NC(=O)c1nnc(NC(=O)C2CC2)cc1Nc1cnn2ccc([C@H](O)C(F)(F)F)c(OC)c12` [Example 30, (S)-6-(cyclopropanecarboxamido)-4-((4-methoxy-5-(2,2,2-trifluoro-1-hydroxyethyl)pyrazolo[1,5-a]pyridin-3-yl)amino)-N-(methyl-d3)pyridazine-3-carboxamide], in the data set on TYK2 pathway, the IC50 stood at 6.72 nM.
On to `COC(=O)c1cnc(NC(=O)C2CC2)cc1Nc1nn(C)c2ccc([C@H](OC)C(F)(F)F)c(OC)c12` [Example 45B, Methyl (S)-6-(cyclopropanecarboxamido)-4-((4-methoxy-1-methyl-5-(2,2,2-trifluoro-1-methoxyethyl)-1H-indazol-3-yl)amino)nicotinate], for which the IC50 in the data set on IFNa pSTAT1 [2] was found to be 3.5 nM. For the same molecule, the “efflux ratio” value with Caco-2 cell lines is “lower efflux ratio numbers”.
As to `COC(=O)c1cnc(NC(=O)C2CC2)cc1Nc1nn(C)c2ccc([C@H](O)C(F)(F)F)c(OC)c12` [Example 48A, Methyl (S)-6-(cyclopropanecarboxamido)-4-((4-methoxy-1-methyl-5-(2,2,2-trifluoro-1-hydroxyethyl)-1H-indazol-3-yl)amino)nicotinate], the figures for the IC50 in the data set with IFNa pSTAT1 [2] and with IFNa pSTAT1 [1] were 0.74 nM and under 0.061 nM, respectively. The “efflux ratio” value in the data set with Caco-2 cell lines was “lower efflux ratio numbers”.
In data set [3] (intravenous, 2 mg/kg), `[2H]C([2H])([2H])NC(=O)c1cnc(NC(=O)C2CC2)cc1Nc1nn(C)c2ccc([C@H](O)C(F)(F)F)c(OC)c12` [Example 49A, (S)-6-(cyclopropanecarboxamido)-4-((4-methoxy-1-methyl-5-(2,2,2-trifluoro-1-hydroxyethyl)-1H-indazol-3-yl)amino)-N-(methyl-d3)nicotinamide] had an AUC of 0.904 µg·h/mL, a Vd of 2.2 L/kg, a clearance of 38.2 mL/min/kg and a half-life of 1.04 h. For the same molecule, in data set [3] (oral, 10 mg/kg), the AUC was 0.418 µg·h/mL, the concentration peaked (Cmax) at 74.2 ng/mL, the bioavailability is 9.25% and the half-life is 3.14 h. Besides, the IC50 in the data set with IFNa pSTAT1 [1] was under 0.061 nM. Further, in data set [4] (plasma), the peak level (Cmax) was 1340 ng/mL, the Tmax was determined as 0.25 h and the half-life is 1.03 h. The AUC(0-t) in data set [4] (setting [5]) is 1.22 µg·h/mL. Moreover, the AUC(0-t) in data set [4] (setting [6]) came out at 21.3 µg·h/mL. Further, in data set [4] (setting [7]), the AUC(0-t) turned out to be 1590 µg·h/mL.
In the case of `[2H]C([2H])([2H])O[C@@H](c1ccc2c(c(Nc3cc(NC(=O)C4CC4)ncc3C(=O)OC)nn2C)c1OC)C(F)(F)F` [Example 50B, Methyl (S)-6-(cyclopropanecarboxamido)-4-((4-methoxy-1-methyl-5-(2,2,2-trifluoro-1-(methoxy-d3)ethyl)-1H-indazol-3-yl)amino)nicotinate], the IC50 with IFNa pSTAT1 [2] came out at 3.73 nM.
For `[2H]C([2H])([2H])NC(=O)c1cnc(NC(=O)C2CC2)cc1Nc1nn(C)c2ccc([C@H](OC([2H])([2H])[2H])C(F)(F)F)c(OC)c12` [Example 55A, (S)-6-(cyclopropanecarboxamido)-4-((4-methoxy-1-methyl-5-(2,2,2-trifluoro-1-(methoxy-d3)ethyl)-1H-indazol-3-yl)amino)-N-(methyl-d3)nicotinamide], in data set [3] (intravenous, 3 mg/kg), the exposure (AUC) stood at 3.65 µg·h/mL, the Vd stood at 2.05 L/kg, the clearance came to 13.6 mL/min/kg and the half-life was 2.56 h. In data set [3] (oral, 5 mg/kg), this molecule had an AUC of 2.95 µg·h/mL, a maximum concentration (Cmax) of 409 ng/mL, a bioavailability of 48.6% and a half-life of 2.67 h. Moreover, the IC50 in the data set with IFNa pSTAT1 [1] stood at 0.192 nM.
